Columns and labels:
[1] = system: 3×Tg AD transgenic mice; test: Novel object recognition test; type: in vivo; conditions: 3×Tg AD mice, artemisinin 1 mg/kg i.p. every other day from 12 to 36 weeks of age, versus untreated 3×Tg AD mice; p<0.05
Method: In the present embodiment, 3×Tg AD transgenic mice were obtained from the Jackson Laboratory (004807), and wild-type C57BL/6 mice were purchased from the National Laboratory Animal Center. The body weights of the animals were measured every eight weeks from 12th to 36th week-old. The animals were i.p. administered with pure water or artemisinin (1 mg/kg) every other day from 12 weeks to 36 weeks of age; the WT-W group was water vehicle-treated wild-type mice; the AD-W group was water vehicle-treated 3×Tg AD transgenic mice; and AD-R group was artemisinin-treated 3×Tg AD transgenic mice. The animals were examined by using behavioral tasks, including Morris water maze test, spontaneous alternation behavior Y-maze test, and novel object recognition task test, when they were 36-week-old. The novel object recognition was conducted to examine whether artemisinin can restore recognition memory, which involves the frontal cortex, entorhinal cortex and hippocampus; it was used to evaluate the inborn tendency of the rodents to explore novel objects rather than familiar ones. During the first two days, mice were habituated to open field (50×40 cm, with 22 cm in height) for two sessions of 10 min each day in order to be familiar with the apparatus. […] The discrimination index was calculated as percentage ratio of TB/(TA+TB)×100. […]

[2] = system: stably transfected human FABP3-SH-SY5Y cells; test: Western blot of Aβ42 oligomerization in stably transfected human FABP3-SH-SY5Y cells; type: cell-based; conditions: artemisinin 4 μM pretreatment 4 hours, Aβ42 2.5 μM 24 hours
Method: (§1) Human neuroblastoma SH-SY5Y cell line was obtained from American Type Culture Collection (ATCC® CRL-2266™) and maintained in Dulbecco's Modified Eagle Medium with nutrient mixture F-12 (DMEM/F12; Invitrogen) media supplemented with 10% FBS, 100 U/mL penicillin and 100 μg/mL streptomycin at 37° C. in a 5% CO2 humidified incubator.
(§2) Human FAPB3 cDNA, which was reverse transcribed from the total RNA of SH-SY5Y cells, was amplified by polymerase chain reaction (PCR) using primers (5′-[…] and 5′-TGCCTCTrTCTCATAAGTG) and then cloned into pcDNA™3.1D/V5-His-TOPO vector (Invitrogen). SH-SY5Y cells stably expressing human FABP3 were obtained using lipofectamine transfection with selection via cultivation in DMEM/F12 medium (Gibco) containing 500 μg/mL G418 (Sigma-Aldrich).
Then, the stably transfected human FABP3-SH-SY5Y cells were washed with PBS and lysed with radioimmunoprecipitation (RIPA) buffer supplemented with cOmplete™ Protease Inhibitor Cocktail (Sigma-Aldrich). The samples with equal amounts of total protein (50 μg) were fractionated by SDS-PAGE and electrotransferred to a polyvinylidene difluoride (PVDF) membrane (Millipore). The membrane was blocked for one hour at room temperature with 10% nonfat milk in TBST buffer (20 mM Tris-HCl, 150 mM NaCl, and 0.1% Tween 20); thereafter, the membrane was incubated with 6E10 (BioLegend), FABP3 (Santa Cruz) or GAPDH (Santa Cruz) antibodies. […]

[3] = system: SH-SY5Y cells transfected with human FABP3; test: MTT cell viability assay, Aβ42 cytotoxicity in FABP3-transfected SH-SY5Y cells; type: cell-based; conditions: pcDNA3/FABP3 SH-SY5Y cells, artemisinin (0-4 μM) pretreatment four hours, Aβ42 2.5 μM 24 hours; increased from 65% without artemisinin; p<0.01
Method: as §1
as §2, with “5′-TGCCTCTTCTCATAAGTG)” for “5′-TGCCTCTrTCTCATAAGTG)”, “µg/mL” for “μg/mL”
Afterwards, purple formazan crystals formed by reduction of MTT in the mitochondria of living cells were dissolved in 100 μl solution containing 10% SDS and 0.01N HCl. The absorbance was measured at 570 nm with an ELISA reader (pQuant; BioTek Instruments, Inc).

[4] = system: 3×Tg AD transgenic mice; test: Spontaneous alternation behavior Y-maze test; type: in vivo; conditions: 3×Tg AD mice, artemisinin 1 mg/kg i.p. every other day from 12 to 36 weeks of age, tested at 36 weeks
Method: In the present embodiment, 3×Tg AD transgenic mice were obtained from the Jackson Laboratory (004807), and wild-type C57BL/6 mice were purchased from the National Laboratory Animal Center. The body weights of the animals were measured every eight weeks from 12th to 36th week-old. The animals were i.p. administered with pure water or artemisinin (1 mg/kg) every other day from 12 weeks to 36 weeks of age; the WT-W group was water vehicle-treated wild-type mice; the AD-W group was water vehicle-treated 3×Tg AD transgenic mice; and AD-R group was artemisinin-treated 3×Tg AD transgenic mice. The animals were examined by using behavioral tasks, including Morris water maze test, spontaneous alternation behavior Y-maze test, and novel object recognition task test, when they were 36-week-old. The spontaneous alternation behavior Y-maze test was used to estimate short-term memory. The Y-maze was a three-arm maze (30 cm long and 5 cm wide with 12 cm in height) with equal angles and the arms were labeled A, B, and C. The 36-week-old mice (n=6 per group) administered with aforementioned treatment were initially placed within one arm, and the number of arm entries and the number of alternations were recorded for eight min period for each mouse. […] The percentage of alternation was calculated by the following equation: Alternation (%)=[(Number of alternation)/(Total arm entries−2)]×100.

[5] = system: 3×Tg AD transgenic mice; test: Morris water maze test; type: in vivo; conditions: 3×Tg AD mice, artemisinin 1 mg/kg i.p. every other day from 12 to 36 weeks of age, tested at 36 weeks; p<0.05
Method: In the present embodiment, 3×Tg AD transgenic mice were obtained from the Jackson Laboratory (004807), and wild-type C57BL/6 mice were purchased from the National Laboratory Animal Center. The body weights of the animals were measured every eight weeks from 12th to 36th week-old. The animals were i.p. administered with pure water or artemisinin (1 mg/kg) every other day from 12 weeks to 36 weeks of age; the WT-W group was water vehicle-treated wild-type mice; the AD-W group was water vehicle-treated 3×Tg AD transgenic mice; and AD-R group was artemisinin-treated 3×Tg AD transgenic mice. The animals were examined by using behavioral tasks, including Morris water maze test, spontaneous alternation behavior Y-maze test, and novel object recognition task test, when they were 36-week-old. To evaluate whether artemisinin ameliorates the spatial learning and memory deficits, the Morris water maze test was performed. […] After the last trail, mice were subjected to the probe test that the platform was removed, and the time spent in quadrants was recorded by a computer-controlled system.

[6] = target: T1, recombinant human FABP3 protein (FABP3-induced Aβ42 oligomerization) (Homo sapiens, UniProt P05413); test: Western blot of Aβ42 oligomerization with recombinant FABP3 pre-incubated with artemisinin; type: biochemical; conditions: artemisinin 4 μM preincubated with FABP3 2.5 μM for four hours, then Aβ42 oligomers 2.5 μM 24 hours; 6E10 antibody, ImageJ; p<0.05
T1 construct: purchased Cayman Chemical
Method: Synthetic Aβ42 peptides (AnaSpec) were solubilized in hexafluoroisopropanol (HFIP), and then HFIP was allowed to be evaporated completely under nitrogen flow. Aβ42 peptides were resuspended using phosphate buffered saline (PBS) to […], and were incubated to assemble oligomers at room temperature for 24 hours prior to use. The oligomeric status of AP was verified by sodium dodecyl sulfate polyacrylamide gel electrophoresis (SDS-PAGE).
Afterwards, the oligomerization of Aβ42 was analyzed using western blot analysis and detected with 6E10 antibody.

T1 sequence (P05413 whole entry): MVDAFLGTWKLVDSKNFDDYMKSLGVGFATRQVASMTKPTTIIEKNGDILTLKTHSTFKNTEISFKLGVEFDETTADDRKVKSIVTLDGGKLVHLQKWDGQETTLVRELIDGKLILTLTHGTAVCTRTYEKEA

decrease of Aβ42 tetramer induced by FABP3 [6]: 156% | decrease of Aβ42 trimer induced by FABP3 [6]: 144%
SMILES: C[C@@H]1CC[C@H]2[C@@H](C)C(=O)O[C@@H]3O[C@@]4(C)CC[C@@H]1[C@]32OO4 [artemisinin]
increment in the discrimination index [1]: 56% | decrease of Aβ42 tetramer induced by FABP3 overexpression [2]: 87% | decrease of Aβ42 trimer induced by FABP3 overexpression [2]: 78% | cell viability [3]: 85% | spatial working memory (spontaneous alternation rate) [4]: restored spatial working memory to the extent similar as that of the wild-type group | time in finding the hidden platform [5]: significantly less time
